Results published in patent publication US8642657B2 (Gruenenthal GmbH, priority 2003, dated 2014).
Where two headings read alike, the source gives them in different places.

Legend:
rat VR1 = molecular target: T1, rat VR1 (Rattus norvegicus, UniProt O35433); experiment: [3H]resiniferatoxin (RTX) competition binding assay, VR1-transfected CHO cells
T1 construct: expressed in transfected cells
Experimental: The pUHG102 VR1 plasmid was transfected into CHO cells containing the pTet Off regulatory plasmid (Clontech). In these cells, expression of the VR1 is repressed in the presence of tetracycline but is induced upon removal of the antibiotic. Stable clones were isolated in culture medium containing puromycin (10 μg/mL) and maintained in HAM F12 medium supplemented with tetracycline (1 μg/mL), 5 μg/ml geniticin, 25 mM HEPES, 10% FBS. Cells utilized for assays were grown in culture medium without antibiotic for 48 h before use. Cells were seeded in T75 cell culture flasks in media without antibiotics and grown to approximately 90% confluence. The flasks were then washed with PBS and harvested in 0.25% trypsin, 1 mM EDTA. The cells were pelleted by gentle centrifugation and stored at −20° C. until assay.
Competition Binding Assay
Binding studies with [^3H]resiniferatoxin (RTX) were carried out as described previously with minor modifications (Szallasi et al., 1992). Binding assay mixtures were set up on ice and contained 50-100 pM [^3H]RTX, various concentrations of competing ligands, 0.25 mg/mL BSA (Cohn fraction V), and about 5×10^5 VR1-transfected cells. The final volume was adjusted to 350 μL with DPBS with Ca^2+ and Mg^2+ and 0.25 mg/mL bovine serum albumin. Non-specific binding was determined in the presence of 100 nM nonradioactive RTX. The binding reaction was initiated by transferring the assay mixtures to a 37° C. water bath and was terminated after a 60 min incubation period by cooling the tubes on ice. To reduce non-specific binding, 200 μg/ml α-glycoprotein was added. Membrane-bound RTX was then separated from the free by pelleting the membranes in a Beckman 12 benchtop centrifuge (15 min, maximal velocity), the tips of the tubes containing the pellets were cut off, and the radioactivity was determined by scintillation counting. Equilibrium binding parameters (Ki and cooperativity) were determined by fitting the Hill equation to the measured values with the aid of the program MicroCal Origin 6.0.
Initial stocks were dissolved in DMSO. For the binding assays, compounds were diluted in with DPBS with Ca^2+ and Mg^2+ and 0.25 mg/mL bovine serum albumin. For the calcium uptake assays, compounds were diluted in DMEM with 0.25 mg/mL bovine serum albumin.

[1] = competition with [3H]RTX, rat VR1 in CHO cells, read-out: Ki (nM) Binding Affinity

T1 sequence (O35433 whole entry): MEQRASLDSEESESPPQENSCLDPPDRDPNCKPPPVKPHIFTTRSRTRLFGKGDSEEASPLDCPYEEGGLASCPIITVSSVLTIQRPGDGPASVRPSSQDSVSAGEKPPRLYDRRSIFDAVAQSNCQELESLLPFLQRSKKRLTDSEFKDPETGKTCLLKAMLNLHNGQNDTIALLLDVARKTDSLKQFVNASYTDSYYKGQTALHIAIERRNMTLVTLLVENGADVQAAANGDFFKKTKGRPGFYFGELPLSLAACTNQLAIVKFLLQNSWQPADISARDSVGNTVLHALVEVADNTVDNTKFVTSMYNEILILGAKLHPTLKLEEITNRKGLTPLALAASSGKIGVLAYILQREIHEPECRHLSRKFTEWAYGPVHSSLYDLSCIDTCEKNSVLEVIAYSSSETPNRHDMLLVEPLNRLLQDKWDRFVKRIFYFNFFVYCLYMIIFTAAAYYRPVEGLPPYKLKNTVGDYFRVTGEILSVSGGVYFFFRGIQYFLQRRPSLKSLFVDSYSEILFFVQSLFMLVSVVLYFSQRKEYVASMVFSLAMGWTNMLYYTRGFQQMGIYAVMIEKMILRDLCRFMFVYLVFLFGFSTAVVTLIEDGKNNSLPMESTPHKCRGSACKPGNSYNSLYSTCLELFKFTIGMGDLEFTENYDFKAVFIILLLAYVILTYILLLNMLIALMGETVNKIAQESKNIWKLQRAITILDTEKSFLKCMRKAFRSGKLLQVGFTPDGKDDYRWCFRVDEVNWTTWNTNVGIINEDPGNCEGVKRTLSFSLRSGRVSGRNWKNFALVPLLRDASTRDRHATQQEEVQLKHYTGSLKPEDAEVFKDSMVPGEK

| SMILES | melting point [°C] | Ki (rat VR1; [1]) [nM] | Ki (rat VR1) [nM] |
| --- | --- | --- | --- |
| C[C@H](C(=O)N[C@H](COC(=O)C(C)(C)C)Cc1ccccc1)c1ccc(NS(C)(=O)=O)c(F)c1 [6-2, N—[(S)-1-Benzyl-2-(pivaloyloxy)ethyl]-(S)-2-[3-fluoro-4-(methylsulfonylamino)phenyl]propionamide] | 125 to 126 |  |  |
| CC(C(=O)NCc1ccc(C(C)(C)C)cc1)c1ccc(NS(C)(=O)=O)c(C(=O)NCc2ccccc2)c1 (stereo not drawn) [1-60, N-(4-tert-Butylbenzyl)-2-[3-(benzylamino)carbonyl-4-(methylsulfonylamino)phenyl]propionamide] | 79 to 81 | 3710 |  |
| CC(C(=O)NCCCc1ccc(Cl)cc1)c1ccc(NS(C)(=O)=O)c(F)c1 (stereo not drawn) [4-19, N-[3-(4-Chlorophenyl)propyl]-2-[3-fluoro-4-(methylsulfonylamino)phenyl]propionamide] | 141 to 143 |  |  |
| CC(NC(=S)NC(COC(=O)C(C)(C)C)Cc1ccccc1)c1ccc(NS(C)(=O)=O)cc1 [19-15, N-[(2R)-3-phenyl-1-pivaloyloxy-2-propyl]-N′-[(S)-α-methyl-4-(methylsulfonylamino)benzy]thiourea] | 61 to 64 |  |  |
| Cc1ccc(C=CCNC(=O)C(C)c2ccc(NS(C)(=O)=O)c(F)c2)cc1C (stereo not drawn) [4-18, N-[3-(3,4-Dimethylphenyl)-2-propenyl]-2-[3-fluoro-4-(methylsulfonylamino)phenyl]propionamide] | 144 to 146 |  |  |
| CC(C(=O)NCC=Cc1ccc(Cl)cc1)c1ccc(NS(C)(=O)=O)c(F)c1 (stereo not drawn) [4-20, N-[3-(4-Chlorophenyl)-2-propenyl]-2-[3-fluoro-4-(methylsulfonylamino)phenyl]propionamide] | 151 to 153 |  |  |
| CC(NC(=S)NCc1ccc(C(C)(C)C)cc1)c1ccc(NS(C)(=O)=O)c(C(=O)O)c1 (stereo not drawn) [15-5, N-(4-t-Butylbenzyl)-N′-{1-[3-carboxy-4-(methylsulfonylamino)phenyl]ethyl}thiourea] | 189 to 192 |  | 2770 |
| Cc1ccc(CNC(=O)C(C)c2ccc(NS(C)(=O)=O)c(F)c2)cc1 (stereo not drawn) [4-7, N-(4-Methylbenzyl)-2-[3-fluoro-4-(methylsulfonylamino)phenyl]propionamide] | 166 |  |  |
| CC(C(=O)NCc1ccc(C(C)(C)C)cc1)c1ccc(NS(C)(=O)=O)c(N2CCCCC2)c1 (stereo not drawn) [1-61, N-(4-tert-Butylbenzyl)-2-[3-piperidino-4-(methylsulfonylamino)phenyl]propionamide] | 125 |  |  |
| CC(C(=O)NCc1ccc(C(C)(C)C)cc1)c1ccc(NS(C)(=O)=O)c(N2CCNCC2)c1 (stereo not drawn) [1-64, N-(4-tert-Butylbenzyl)-2-[3-piperazino-4-(methylsulfonylamino)phenyl]propionamide] | 92 |  |  |
| CC(C(=O)NOCc1ccccc1)c1ccc(NS(C)(=O)=O)c(F)c1 (stereo not drawn) [4-21, N-Benzyloxy-2-[3-fluoro-4-(methylsulfonylamino)phenyl]propionamide] | 182 to 183 | 9420 |  |
| CC(C(=O)NCc1ccc(C(C)(C)C)cc1)c1ccc(NS(C)(=O)=O)c(N2CCN(C(=O)OC(C)(C)C)CC2)c1 (stereo not drawn) [1-63, N-(4-tert-Butylbenzyl)-2-[3-(N-boc)piperazino-4-(methylsulfonylamino)phenyl]propionamide] | 103 |  |  |
| C[C@H](NC(=S)NCc1ccc(C(C)(C)C)cc1)c1ccc(NS(C)(=O)=O)cc1 [16-6, N-(4-t-Butylbenzyl)-N′-{(1S)-1-[4-(methylsulfonylamino)phenyl]ethyl}thiourea] | 101 |  | 3590 |
| CC(C(=O)NCc1ccc(C(C)(C)C)cc1)c1ccc(NS(C)(=O)=O)c(C(=O)O)c1 (stereo not drawn) [1-58, N-(4-tert-Butylbenzyl)-2-[3-carboxyl-4-(methylsulfonylamino)phenyl]propionamide] | 180 to 183 |  |  |
| CC(C(=O)NC1CCCc2ccccc21)c1ccc(NS(C)(=O)=O)c(F)c1 (stereo not drawn) [4-13, N-(1,2,3,4-Tetrahydro-1-naphthalenyl)-2-[3-fluoro-4-(methylsulfonylamino)phenyl]propionamide] | 116 to 117 |  |  |
| CC(C(=O)NC(c1ccccc1)c1ccccc1)c1ccc(NS(C)(=O)=O)c(F)c1 (stereo not drawn) [4-22, N-Benzhydryl-2-[3-fluoro-4-(methylsulfonylamino)phenyl]propionamide] | 160 to 161 | 5860 |  |
| CC(NC(=O)C=Cc1ccc(C(C)(C)C)cc1)c1ccc(NS(C)(=O)=O)c(F)c1 (stereo not drawn) [24-3, N-{1-[3-Fluoro-4-(methylsulfonylamino)phenyl]ethyl}-3-(4-tert-butylphenyl)-2-propenamide] | 154 to 156 |  |  |
| COc1cc(C(C)C(=O)NCC(COC(=O)C(C)(C)C)Cc2ccc(C(C)(C)C)cc2)ccc1NS(C)(=O)=O (stereo not drawn) [5-6, N-[2-(4-tert-Butylbenzyl)-3-pivaloyloxypropyl]-2-[3-methoxy-4-(methylsulfonylamino)phenyl]propionamide] | 54 to 57 | 24 |  |
| CC(C(=O)NCc1ccc(C(C)(C)C)cc1)c1ccc(NS(C)(=O)=O)c(N2CCOCC2)c1 (stereo not drawn) [1-62, N-(4-tert-Butylbenzyl)-2-[3-morpholino-4-(methylsulfonylamino)phenyl]propionamide] | 78 |  |  |
| Cc1ccc(CCCNC(=O)C2(c3ccc(NS(C)(=O)=O)c(F)c3)CC2)cc1C [12-5, N-[3-(3,4-Dimethylphenyl)propyl]-1-[3-fluoro-4-(methylsulfonylamino)phenyl]cyclopropanecarboxamide] | 127 to 128 |  |  |
| CC(C(=O)NCC=C(c1ccccc1)c1ccccc1)c1ccc(NS(C)(=O)=O)c(F)c1 (stereo not drawn) [4-25, N-(3,3-Diphenyl-2-propenyl)-2-[3-fluoro-4-(methylsulfonylamino)phenyl]propionamide] | 155 to 157 |  |  |
| CC(C(=O)NCc1ccc(C(C)(C)C)cc1)c1ccc(NS(C)(=O)=O)c(C(=O)OC(C)(C)C)c1 (stereo not drawn) [1-57, N-(4-tert-Butylbenzyl)-2-[3-(t-butoxycarbonyl)-4-(methylsulfonylamino)phenyl]propionamide] | 75 to 77 | 6730 |  |
| CC(C)(C)c1ccc(CNC(=O)C2(c3ccc(NS(C)(=O)=O)c(F)c3)CC2)cc1 [12-8, N-(4-tert-Butylbenzyl)-1-[3-fluoro-4-(methylsulfonylamino)phenyl]cyclopropanecarboxamide] | 200 to 203 |  |  |
